Test results reported in US20230087118A1, “IMIDAZO[1,2-a][sequence] DERIVATIVES AND THEIR USE IN THE TREATMENT OF DISEASE” (priority 2019, published 2023).

Molecular target: T1, IRAK4 (Homo sapiens, UniProt Q9NWZ3)
T1 sequence (Q9NWZ3 1-460): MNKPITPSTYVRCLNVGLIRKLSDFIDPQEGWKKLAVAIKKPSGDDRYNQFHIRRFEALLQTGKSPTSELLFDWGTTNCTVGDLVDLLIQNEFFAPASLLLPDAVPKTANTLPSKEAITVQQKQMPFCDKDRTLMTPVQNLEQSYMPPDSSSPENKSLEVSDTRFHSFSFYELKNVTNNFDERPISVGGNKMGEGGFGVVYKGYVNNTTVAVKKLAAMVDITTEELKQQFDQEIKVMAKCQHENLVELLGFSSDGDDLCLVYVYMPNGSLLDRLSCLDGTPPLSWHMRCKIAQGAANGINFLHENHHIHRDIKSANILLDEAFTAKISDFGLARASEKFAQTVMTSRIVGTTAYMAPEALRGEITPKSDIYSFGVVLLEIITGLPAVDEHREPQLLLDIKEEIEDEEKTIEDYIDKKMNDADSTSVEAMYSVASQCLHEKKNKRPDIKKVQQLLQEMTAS
Test: biochemical

| Structure (SMILES) | IC50 |
| --- | --- |
| CC(C)Oc1cc2nc(C34CC(C#N)(C3)C4)cn2cc1C(=O)Nc1cccc(C(F)F)n1 [Example 402, 2-(3-Cyanobicyclo[1.1.1]pentan-1-yl)-N-(6-(difluoromethyl)pyridin-2-yl)-7-isopropoxyimidazo[1,2-a]pyridine-6-carboxamide] | 0.2 nM |
| COc1ncccc1NC(=O)c1cn2cc(C34CC(C#N)(C3)C4)nc2cc1OC(C)C [Example 403, 2-(3-Cyanobicyclo[1.1.1]pentan-1-yl)-7-isopropoxy-N-(2-methoxypyridin-3-yl)imidazo[1,2-a]pyridine-6-carboxamide] | 0.8 nM |
| CC(C)Oc1cc2nc(C34CC(C#N)(C3)C4)cn2cc1C(=O)Nc1ccn(C)n1 [Example 404, 2-(3-Cyanobicyclo[1.1.1]pentan-1-yl)-7-isopropoxy-N-(1-methyl-1H-pyrazol-3-yl)imidazo[1,2-a]pyridine-6-carboxamide] | 7.7 nM |
| CC12CC(c3cn4cc(C(=O)Nc5cnn6cccnc56)c(OC5CCC5)cc4n3)(CO1)C2 [Example 406, 7-Cyclobutoxy-2-(1-methyl-2-oxabicyclo[2.1.1]hexan-4-yl)-N-(pyrazolo[1,5-a]pyrimidin-3-yl)imidazo[1,2-a]pyridine-6-carboxamide] | 0.3 nM |
| CC(C)Oc1cc2nc(C34CCC(C3)OC4)cn2cc1C(=O)Nc1ccn(C)n1 (centres unmarked) [Example 415, 2-(2-Oxabicyclo[2.2.1]heptan-4-yl)-7-isopropoxy-N-(1-methyl-1H-pyrazol-3-yl)imidazo[1,2-a]pyridine-6-carboxamide] | 8.5 nM |
| CC(C)Oc1cc2nc(C34CCC(C3)OC4)cn2cc1C(=O)Nc1cnn2cccnc12 (centres unmarked) [Example 416, 2-(2-Oxabicyclo[2.2.1]heptan-4-yl)-7-isopropoxy-N-(pyrazolo[1,5-a]pyrimidin-3-yl)imidazo[1,2-a]pyridine-6-carboxamide] | 0.6 nM |
| CC12CCC(c3cn4cc(C(=O)Nc5ccn(C(F)F)n5)c(OC5CCC5)cc4n3)(CO1)C2 (centres unmarked) [Example 418, 7-Cyclobutoxy-N-(1-(difluoromethyl)-1H-pyrazol-3-yl)-2-(1-methyl-2-oxabicyclo[2.2.1]heptan-4-yl)imidazo[1,2-a]pyridine-6-carboxamide] | 2.1 nM |
| Cn1nc(NC(=O)c2cn3cc(C45CCC(C)(C4)OC5)nc3cc2OC2CCC2)cc1F (centres unmarked) [Example 419, 7-Cyclobutoxy-N-(5-fluoro-1-methyl-1H-pyrazol-3-yl)-2-(1-methyl-2-oxabicyclo[2.2.1]heptan-4-yl)imidazo[1,2-a]pyridine-6-carboxamide] | 3.3 nM |
| CCn1cccc(NC(=O)c2cn3cc(C45CCC(C)(CC4)OC5)nc3cc2OC2CCC2)c1=O [Example 420, 7-Cyclobutoxy-N-(1-ethyl-2-oxo-1,2-dihydropyridin-3-yl)-2-(1-methyl-2-oxabicyclo[2.2.2]octan-4-yl)imidazo[1,2-a]pyridine-6-carboxamide] | 0.3 nM |
| Cn1cccc(NC(=O)c2cn3cc(C45CCC(C)(CC4)OC5)nc3cc2OC2CCC2)c1=O [Example 421, 7-Cyclobutoxy-N-(1-methyl-2-oxo-1,2-dihydropyridin-3-yl)-2-(1-methyl-2-oxabicyclo[2.2.2]octan-4-yl)imidazo[1,2-a]pyridine-6-carboxamide] | 0.2 nM |
| Cn1cccc(NC(=O)c2cn3cc(C45CCC(C)(C4)OC5)nc3cc2OC2CCC2)c1=O (centres unmarked) [Example 422, 7-Cyclobutoxy-N-(1-methyl-2-oxo-1,2-dihydropyridin-3-yl)-2-(1-methyl-2-oxabicyclo[2.2.1]heptan-4-yl)imidazo[1,2-a]pyridine-6-carboxamide] | 0.5 nM |
| CCOc1nc2nc(C34CCC(C)(CC3)OC4)cn2cc1C(=O)Nc1ccn(C)n1 [Example 423, 7-Ethoxy-N-(1-methyl-1H-pyrazol-3-yl)-2-(1-methyl-2-oxabicyclo[2.2.2]octan-4-yl)imidazo[1,2-a]pyrimidine-6-carboxamide] | 5.4 nM |
| Cn1cccc(NC(=O)c2cn3cc(C45COC(C)(C4)C5)nc3cc2OC2CCC2)c1=O [Example 424, 7-Cyclobutoxy-N-(1-methyl-2-oxo-1,2-dihydropyridin-3-yl)-2-(1-methyl-2-oxabicyclo[2.1.1]hexan-4-yl)imidazo[1,2-a]pyridine-6-carboxamide] | 0.7 nM |
| CC12CCC(c3cn4cc(C(=O)Nc5cnn6cccnc56)c(OC5CCC5)cc4n3)(CO1)C2 (centres unmarked) [Example 425, 7-Cyclobutoxy-2-(1-methyl-2-oxabicyclo[2.2.1]heptan-4-yl)-N-(pyrazolo[1,5-a]pyrimidin-3-yl)imidazo[1,2-a]pyridine-6-carboxamide] | 0.4 nM |
| Cc1cnc2c(NC(=O)c3cn4cc(C56CCC(C)(C5)OC6)nc4cc3OC3CCC3)cnn2c1 (centres unmarked) [Example 426, 7-Cyclobutoxy-2-(1-methyl-2-oxabicyclo[2.2.1]heptan-4-yl)-N-(6-methylpyrazolo[1,5-a]pyrimidin-3-yl)imidazo[1,2-a]pyridine-6-carboxamide] | 0.3 nM |
| CC(C)Oc1nc(C(=O)Nc2cccn(C)c2=O)cn2cc(C34CCC(C)(CC3)OC4)nc12 [Example 427, 8-Isopropoxy-N-(1-methyl-2-oxo-1,2-dihydropyridin-3-yl)-2-(1-methyl-2-oxabicyclo[2.2.2]octan-4-yl)imidazo[1,2-a]pyrazine-6-carboxamide] | 0.7 nM |
| CC(C)Oc1nc(C(=O)Nc2cnn3cccnc23)cn2cc(C34CCC(C)(CC3)OC4)nc12 [Example 428, 8-Isopropoxy-2-(1-methyl-2-oxabicyclo[2.2.2]octan-4-yl)-N-(pyrazolo[1,5-a]pyrimidin-3-yl)imidazo[1,2-a]pyrazine-6-carboxamide] | 1.6 nM |
| CC(C)Oc1nc(C(=O)Nc2ccn(C)n2)cn2cc(C34CCC(C)(CC3)OC4)nc12 [Example 429, 8-Isopropoxy-N-(1-methyl-1H-pyrazol-3-yl)-2-(1-methyl-2-oxabicyclo[2.2.2]octan-4-yl)imidazo[1,2-a]pyrazine-6-carboxamide] | 1.8 nM |

Second part, the molecule after the results:

| IC50 | Structure (SMILES) |
| --- | --- |
| 13.6 nM | CC(C)Oc1nc(C(=O)Nc2ccnc3ccnn23)cn2cc(C34COC(C)(C3)C4)nc12 [Example 400, 8-Isopropoxy-2-(1-methyl-2-oxabicyclo[2.1.1]hexan-4-yl)-N-(pyrazolo[1,5-a]pyrimidin-7-yl)imidazo[1,2-a]pyrazine-6-carboxamide] |
| 0.2 nM | COc1cccn2ncc(NC(=O)c3cn4cc(C56COC(C)(C5)C6)nc4c(OC(C)C)n3)c12 [Example 401, 8-Isopropoxy-N-(4-methoxypyrazolo[1,5-a]pyridin-3-yl)-2-(1-methyl-2-oxabicyclo[2.1.1]hexan-4-yl)imidazo[1,2-a]pyrazine-6-carboxamide] |
| 5.2 nM | COc1cnc2c(NC(=O)c3cn4cc(C56COC(C)(C5)C6)nc4c(F)c3OC(C)C)cnn2c1 [Example 407, 8-Fluoro-7-isopropoxy-N-(6-methoxypyrazolo[1,5-a]pyrimidin-3-yl)-2-(1-methyl-2-oxabicyclo[2.1.1]hexan-4-yl)imidazo[1,2-a]pyridine-6-carboxamide] |
| 0.7 nM | CC(C)Oc1nc2nc(C34COC(C)(C3)C4)cn2cc1C(=O)Nc1cnn2cccc(F)c12 [Example 408, N-(4-fluoropyrazolo[1,5-a]pyridin-3-yl)-7-isopropoxy-2-(1-methyl-2-oxabicyclo[2.1.1]hexan-4-yl)imidazo[1,2-a]pyrimidine-6-carboxamide] |
| 1.5 nM | CC(C)Oc1nc2nc(C34COC(C)(C3)C4)cn2cc1C(=O)Nc1cccn2cnnc12 [Example 409, N-([1,2,4]triazolo[4,3-a]pyridin-8-yl)-7-isopropoxy-2-(1-methyl-2-oxabicyclo[2.1.1]hexan-4-yl)imidazo[1,2-a]pyrimidine-6-carboxamide] |
| 0.2 nM | CC(C)Oc1nc2nc(C34COC(C)(C3)C4)cn2cc1C(=O)Nc1cccc2ncnn12 [Example 410, N-([1,2,4]triazolo[1,5-a]pyridin-5-yl)-7-isopropoxy-2-(1-methyl-2-oxabicyclo[2.1.1]hexan-4-yl)imidazo[1,2-a]pyrimidine-6-carboxamide] |
| 0.8 nM | CC(C)Oc1nc2nc(C34COC(C)(C3)C4)cn2cc1C(=O)Nc1cccc(OC(F)F)n1 [Example 411, N-(6-(difluoromethoxy)pyridin-2-yl)-7-isopropoxy-2-(1-methyl-2-oxabicyclo[2.1.1]hexan-4-yl)imidazo[1,2-a]pyrimidine-6-carboxamide] |
| 1.2 nM | CC(C)Oc1nc2nc(C34COC(C)(C3)C4)cn2cc1C(=O)Nc1cccc(OC(F)(F)F)n1 [Example 412, 7-Isopropoxy-2-(1-methyl-2-oxabicyclo[2.1.1]hexan-4-yl)-N-(6-(trifluoromethoxy)pyridin-2-yl)imidazo[1,2-a]pyrimidine-6-carboxamide] |
| 0.1 nM | CC(C)Oc1nc2nc(C34COC(C)(C3)C4)cn2cc1C(=O)Nc1cccc(-c2cnn(C)c2)n1 [Example 413, 7-Isopropoxy-N-(6-(1-methyl-1H-pyrazol-4-yl)pyridin-2-yl)-2-(1-methyl-2-oxabicyclo[2.1.1]hexan-4-yl)imidazo[1,2-a]pyrimidine-6-carboxamide] |
| 3.3 nM | CC(C)Oc1cc2nc(C34CCC(C)(C3)OC4)cn2cc1C(=O)Nc1ccn(C)n1 (centres unmarked) [Example 414, 7-Isopropoxy-N-(1-methyl-1H-pyrazol-3-yl)-2-(1-methyl-2-oxabicyclo[2.2.1]heptan-4-yl)imidazo[1,2-a]pyridine-6-carboxamide] |
| 0.2 nM | CC(C)Oc1cc2nc(C34CCC(C)(C3)OC4)cn2cc1C(=O)Nc1cnn2cccnc12 (centres unmarked) [Example 417, 7-Isopropoxy-2-(1-methyl-2-oxabicyclo[2.2.1]heptan-4-yl)-N-(pyrazolo[1,5-a]pyrimidin-3-yl)imidazo[1,2-a]pyridine-6-carboxamide] |
